US11771765B2, “Light augmented treatment method” (The Procter & Gamble Company, priority 2019, dated 2023)

Tests used:
M. furfur [1] = experiment: M. furfur growth after 20 min treatment, then 409 nm light or dark (Table 2); type: cell-based, Malassezia furfur
Method: Cells are grown in the medium of choice, generally one requiring respiration. In the case of Malassezia furfur that medium is modified Dixon medium (mDixon) (per one liter: 36 g malt extract (Difco 0186-17), 20 g ox bile (provided by American Laboratories, Inc., of Omaha, Nebraska, as Lot No. 03130792), 10 ml Tween 40 (Aldrich 27435-6), 6 g peptone (Difco 0118-17), 2 ml oleic acid (Baker 2114-01), and 2 ml glycerol (Sigma G-7893)). [Candida and YPG, Saccharomyces and YNB (without amino acids) to which we added 40 μg/ml each of uracil, histidine, and methionine plus 130 μg/ml leucine and 2% ethanol and 0.1% yeast extract.] Conventional medium may also be used for other microbials. Starting cultures are prepared by diluting a fresh overnight culture that is out of log phase 1:100 and incubating with shaking at 31° C. in a 250 mL shake flask (Corning, 431144) with 20 mL medium shaking at 200-250 rpm for about 3 hours to ensure the cells had returned to growth phase. At this time, the test agent is added to the flasks to afford the final concentration for testing. The cells are cultured for 1 hour with the test agent. At this time, the cells typically have an OD at 600 nm in the range of 0.25 to 0.8. Generally, we isolate 2.5 OD*mLs of cells calculated as desired OD*mLs divided by the OD600 of the cells. These media samples are centrifuged (Beckman Coulter Allegra™ 6KR centrifuge) 10 minutes at RT at 3200 rpm to pellet the cells. The supernatant is poured off and the tubes are set upside down on a folded paper towel to drain off the remains of media. Two and one half milliliters of PBS (Gibco, pH 7.4, without magnesium chloride or calcium chloride, 14190-144) is added and the cells resuspended. One mL of cells is transferred to each of two 12-well plates (Falcon, polystyrene, 353043). One plate is stored in the dark and the other is exposed to the light with the plate cover on the plate. […] When the light exposure is completed, the samples are mixed by slowly vortexing or pipetting and 0.65 mL of each sample is transferred to 13 mL of medium for overnight growth at 31° C. with shaking. The following morning, typically 18 hours later, the ODs at 600 nm are determined. Successful materials are those that show at least a 50% reduction in growth after light exposure relative to a dark sample.
M. furfur is incubated for twenty minutes with the indicated treatment. A cell pellet is collected after centrifugation so that most of the anti-fungal materials is expected to have been removed. The cell pellet is suspended in PBS and either treated with light (409 nm, 1100 foot candles) for ten minutes or stored in the dark for ten minutes. Samples are then diluted into mDixon with subsequent growth indicated by OD 600 nm.

protoporphyrin IX (PPIX) = experiment: Protoporphyrin IX levels in treated M. furfur cells by HPLC; type: cell-based
M. furfur [2] = experiment: Dependence of photosensitivity on wavelength, M. furfur (Table 5); type: cell-based, Malassezia furfur; set-up: overnight growth in mDixon: unit not given here; conditions: for overnight growth in mDixon: N=1
Method: Dependence of photosensitivity on wavelength. A fresh overnight culture is diluted 100 fold and grown for three hours to an OD of 0.16. M. furfur is treated at the indicated dose and cultured another three hours. Cells are harvested by centrifugation, suspended in PBS, and exposed to an LED array at the indicated wavelength. The illumination is for ten minutes with 1200 foot candles. The cultures are then allowed to grow overnight in mDixon. N=1.

[3] = 8 ppm 20 min, Light 409 nm, 1100 foot candles, 10 min
[4] = 16 ppm 20 min, Light 409 nm, 1100 foot candles, 10 min
[5] = 24 ppm 20 min, Light 409 nm, 1100 foot candles, 10 min
[6] = 32 ppm 20 min, Light 409 nm, 1100 foot candles, 10 min
[7] = prior treatment, with the addition of light
[8] = LED arrays of 520 (green) and 595 (yellow) light

Cc1cc(CC(C)CC(C)(C)C)n(O)c(=O)c1.NCCO (stereo not drawn) [Piroctone Olamine, 1-Hydroxy-4-methyl-6-(2,4,4-trimethylpentyl)-2-pyridone monoethanolamine salt]
growth, OD 600 nm (M. furfur [1]; 8 ppm 20 min, Dark 10 min): 7.82 | growth, OD 600 nm (M. furfur [1]; [3]): 7.35 | growth, OD 600 nm (M. furfur [1]; 16 ppm 20 min, Dark 10 min): 7.90 | growth, OD 600 nm (M. furfur [1]; [4]): 0.07 | growth, OD 600 nm (M. furfur [1]; 24 ppm 20 min, Dark 10 min): 7.07 | growth, OD 600 nm (M. furfur [1]; [5]): 0.03 | growth, OD 600 nm (M. furfur [1]; 32 ppm 20 min, Dark 10 min): 6.76 | growth, OD 600 nm (M. furfur [1]; [6]): 0.02 | growth, OD 600 nm (M. furfur [1]; 48 ppm 20 min, Dark 10 min): 7.21 | growth, OD 600 nm (M. furfur [1]; 48 ppm 20 min, Light 409 nm, 1100 foot candles, 10 min): 0.03 | growth, OD 600 nm (M. furfur [1]; 64 ppm 20 min, Dark 10 min): 7.23 | growth, OD 600 nm (M. furfur [1]; 64 ppm 20 min, Light 409 nm, 1100 foot candles, 10 min): 0.02 | growth inhibition (M. furfur [1]; [7]): considerable growth inhibition | Total PPIX (protoporphyrin IX (PPIX); Piroctone Olamine 6 ppm): 2.6 ng | Total PPIX (protoporphyrin IX (PPIX); Piroctone Olamine 8 ppm): 13.9 ng | Total PPIX (protoporphyrin IX (PPIX); Piroctone Olamine 16 ppm): 20.7 ng | Total PPIX (protoporphyrin IX (PPIX); Piroctone Olamine 32 ppm): 16.5 ng | overnight growth in mDixon (M. furfur [2]; 8 ppm 3 h, 409 nm LED array, 10 min, 1200 foot candles): 0.891 | overnight growth in mDixon (M. furfur [2]; 8 ppm 3 h, 520 nm LED array, 10 min, 1200 foot candles): 4.34 | overnight growth in mDixon (M. furfur [2]; 8 ppm 3 h, 595 nm LED array, 10 min, 1200 foot candles): 5.59 | overnight growth in mDixon (M. furfur [2]; 8 ppm 3 h, Dark): 4.36 | overnight growth in mDixon (M. furfur [2]; 12 ppm 3 h, 409 nm LED array, 10 min, 1200 foot candles): 0.068 | overnight growth in mDixon (M. furfur [2]; 12 ppm 3 h, 520 nm LED array, 10 min, 1200 foot candles): 3.76 | overnight growth in mDixon (M. furfur [2]; 12 ppm 3 h, 595 nm LED array, 10 min, 1200 foot candles): 4.22 | overnight growth in mDixon (M. furfur [2]; 12 ppm 3 h, Dark): 2.79 | photosensitivity (M. furfur [2]; LED array of 409 nm light): observed photosensitivity | photosensitivity (M. furfur [2]; [8]): not with LED arrays of 520 (green) and 595 (yellow) light

[O-]n1ccccc1=S.[O-]n1ccccc1=S.[Zn+2] [ZPT, zinc salt of 1-hydroxy-2-pyridinethione]
growth, OD 600 nm (M. furfur [1]; 4 ppm 20 min, Dark 10 min): 10.14 | growth, OD 600 nm (M. furfur [1]; 4 ppm 20 min, Light 409 nm, 1100 foot candles, 10 min): 4.86 | growth, OD 600 nm (M. furfur [1]; 8 ppm 20 min, Dark 10 min): 9.02 | growth, OD 600 nm (M. furfur [1]; [3]): 3.16 | growth, OD 600 nm (M. furfur [1]; 16 ppm 20 min, Dark 10 min): 5.72 | growth, OD 600 nm (M. furfur [1]; [4]): 0.24 | growth inhibition (M. furfur [1]; 16 to 32 ppm, without light exposure): some growth inhibition | growth, OD 600 nm (M. furfur [1]; 24 ppm 20 min, Dark 10 min): 5.54 | growth, OD 600 nm (M. furfur [1]; [5]): 2.41 | growth, OD 600 nm (M. furfur [1]; 32 ppm 20 min, Dark 10 min): 2.61 | growth, OD 600 nm (M. furfur [1]; [6]): 1.65 | growth inhibition (M. furfur [1]; [7]): considerable growth inhibition | Total PPIX (protoporphyrin IX (PPIX); ZPT 2.5 ppm): 0.37 ng | Total PPIX (protoporphyrin IX (PPIX); ZPT 5 ppm): 0.47 ng | Total PPIX (protoporphyrin IX (PPIX); ZPT 10 ppm): 0.27 ng | overnight growth in mDixon (M. furfur [2]; 6 ppm 3 h, 409 nm LED array, 10 min, 1200 foot candles): 0.354 | overnight growth in mDixon (M. furfur [2]; 6 ppm 3 h, 520 nm LED array, 10 min, 1200 foot candles): 3.37 | overnight growth in mDixon (M. furfur [2]; 6 ppm 3 h, 595 nm LED array, 10 min, 1200 foot candles): 3.75 | overnight growth in mDixon (M. furfur [2]; 6 ppm 3 h, Dark): 3.31 | photosensitivity (M. furfur [2]; LED array of 409 nm light): observed photosensitivity | photosensitivity (M. furfur [2]; [8]): not with LED arrays of 520 (green) and 595 (yellow) light
